Test [1] concerns the target T1, AQ variant of human STING (Homo sapiens, UniProt Q86WV6, G230A/R293Q).
T1 construct: expressed in transfected cells
Nature of the test: Luciferase (ISRE.ISG reporter) assay in HEK293T cells stably expressing AQ hSTING. The format is cell-based. The text has this: • a) Stable STING expressing cells. Stable HEK293T STING-expressing cell lines were generated using plasmids purchased from Invivogen, CA, USA, that contain STING cDNA cloned into the pUNO-1 vector under the hEF1-HTLV promoter as well as the Blasticidin selection cassette. The human STING plasmids corresponding to the R232, H232 and HAQ variants were directly procured from Invivogen while the AQ and Q variants were created by mismatch PCR using cDNA from HAQ.STING and R232.STING variants respectively. These vectors were individually transfected into HEK293T cells using Lipofectamine (Invitrogen) and transfected cells were expanded under Blasticidin selection. These cells were further subjected to clonal selection using the limiting dilution method to obtain clonally pure populations of HEK293T cells expressing each of the five human STING variants. Clones with minimal ligand independent activation of STING were chosen for cellular experiments. • b) N-His R232.hSTING HEK293T cells. […]
[…] clonally selected HEK293T-hSTING-Luciferase cells or control HEK293T-Luciferase cells were seeded in 384-well plates in growth medium and stimulated with known STING agonists or novel compounds. Supernatants were removed after 20 hours of treatment and secretory reporter gene activity was measured using the Quanti-Luc detection system (Invivogen) on a Spectramax i3X luminometer.

The target in test [2] is T2, R232 variant of human STING (THP-1-Dual KI-hSTING-R232 cells) (Homo sapiens, UniProt Q86WV6, H232R).
T2 construct: host or cells: THP-1-Dual KI-hSTING-R232
Nature of the test: Western blot of pSTING and pIRF3 in THP1-R232 knock in cells. It is filed as cell-based. As to conditions: immunoblot, 2 hours, R232 STING in HAQ knockout background. The protocol: HEK293T cells were procured from ATCC. THP-1 and THP-1-Dual KI-hSTING-R232 cells which contained the R232 version of STING was knocked in to THP1 cells in which the HAQ version was ablated, were procured from Invivogen, CA, USA.
5 x 10^5 cells were seeded in 24-well plates in 500 μl growth medium and stimulated with novel compounds at 10μM. After 2 hours of treatment cells were harvested by centrifugation and cell pellets were lysed in RIPA buffer (20mM Tris-Cl, 150mM NaCl, 0.5mM EDTA, 1% NP40, 0.05% SDS) containing 1x phosphatase inhibitor cocktail 3 (Sigma) and 1x protease inhibitor (Roche) to extract the soluble fraction of protein. 10 μg of extracted protein was electrophoresed in 10% SDS-PAGE gels and transferred onto Immobilon-P membranes (Millipore). […] Anti-rabbit HRP label secondary antibody (Abcam) and Clarity Max™ western ECL substrate (Biorad—cat# 1705062) were used for visualization of bands using a BioRad XRS plus imager.

For test [3], the system named is ligand binding domain of the R232 variant of STING. Details: method as in PMID 26646986. The settings on record: cited from earlier work.

T2 sequence (Q86WV6 whole entry H232R): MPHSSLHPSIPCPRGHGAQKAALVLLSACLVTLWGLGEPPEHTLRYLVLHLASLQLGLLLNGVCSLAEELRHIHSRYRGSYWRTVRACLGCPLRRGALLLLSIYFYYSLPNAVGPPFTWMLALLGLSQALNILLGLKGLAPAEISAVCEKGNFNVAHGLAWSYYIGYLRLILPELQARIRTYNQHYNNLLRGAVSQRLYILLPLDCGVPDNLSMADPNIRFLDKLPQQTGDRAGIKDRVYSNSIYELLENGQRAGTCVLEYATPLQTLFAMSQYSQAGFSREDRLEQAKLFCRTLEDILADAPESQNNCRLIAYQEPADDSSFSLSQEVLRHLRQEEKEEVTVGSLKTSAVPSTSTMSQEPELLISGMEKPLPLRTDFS
T1 sequence (Q86WV6 whole entry G230A/R293Q): as the sequence (Q86WV6 whole entry H232R) above, with G230A, R232H, R293Q counted along it

`O=C(NCc1ccco1)c1ccc2c(c1)N(Cc1c(F)cccc1Cl)C(=O)CS2` [Compound G10, 4-(2-Chloro-6-fluorobenzyl)-N-(furan-2-ylmethyl)-3-oxo-3,4-dihydro-2H-benzo[b][1,4]thiazine-6-carboxamide]: the “activity against the AQ variant” value in test [1] is listed as “barely active”. Besides, the “phosphorylation of STING and IRF3 in THP1-R232 cells” value in test [2] is “led to phosphorylation of STING and IRF3”. For the same compound, the “direct engagement with ligand binding domain of R232 STING (DSF)” value in test [3] was “no evidence of direct engagement”.

The values above are taken from publication PMC7482845, “G10 is a direct activator of human STING” (PLoS ONE, 2020).
